The values that follow come from US20220226337A1 (Gilead Sciences, Inc., priority 2018, published 2022).

As a reminder, the EC50 is the concentration at which the effect is half-maximal.

This assay concerns the target T1, α4β7 integrin interaction with MadCAM-1 (RPMI8866 cells) (Homo sapiens, UniProt P13612+P26010).
T1 construct: α4β7 integrin expressing cells; endogenous in cells; host or cells: RPMI8866 cells
T1 sequence (P13612 34-1032): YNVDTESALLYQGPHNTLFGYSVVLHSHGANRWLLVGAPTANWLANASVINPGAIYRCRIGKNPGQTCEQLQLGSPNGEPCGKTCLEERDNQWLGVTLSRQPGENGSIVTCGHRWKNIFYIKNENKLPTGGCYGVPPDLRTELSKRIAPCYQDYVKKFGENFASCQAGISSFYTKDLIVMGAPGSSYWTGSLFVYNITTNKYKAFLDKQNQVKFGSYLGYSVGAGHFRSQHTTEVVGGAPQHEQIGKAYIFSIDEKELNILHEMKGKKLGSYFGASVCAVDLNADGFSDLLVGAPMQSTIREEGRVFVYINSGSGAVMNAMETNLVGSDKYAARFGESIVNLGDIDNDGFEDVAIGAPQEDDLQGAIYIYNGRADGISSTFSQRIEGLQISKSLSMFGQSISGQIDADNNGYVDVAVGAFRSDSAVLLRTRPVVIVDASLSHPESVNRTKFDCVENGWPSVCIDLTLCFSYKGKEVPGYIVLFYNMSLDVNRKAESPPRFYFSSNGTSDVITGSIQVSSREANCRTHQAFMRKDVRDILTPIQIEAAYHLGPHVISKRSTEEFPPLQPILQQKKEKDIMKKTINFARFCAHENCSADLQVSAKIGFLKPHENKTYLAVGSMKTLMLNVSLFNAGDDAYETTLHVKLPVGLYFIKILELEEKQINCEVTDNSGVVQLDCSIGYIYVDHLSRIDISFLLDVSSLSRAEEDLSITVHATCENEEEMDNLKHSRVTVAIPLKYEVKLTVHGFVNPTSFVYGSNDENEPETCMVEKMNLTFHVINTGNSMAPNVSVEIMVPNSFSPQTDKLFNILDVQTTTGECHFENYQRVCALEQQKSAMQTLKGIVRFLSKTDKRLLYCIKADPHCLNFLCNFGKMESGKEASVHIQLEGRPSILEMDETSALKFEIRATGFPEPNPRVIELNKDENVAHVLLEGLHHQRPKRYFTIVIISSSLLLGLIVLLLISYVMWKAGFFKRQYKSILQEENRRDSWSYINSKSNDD
T1 sequence (P26010 20-798): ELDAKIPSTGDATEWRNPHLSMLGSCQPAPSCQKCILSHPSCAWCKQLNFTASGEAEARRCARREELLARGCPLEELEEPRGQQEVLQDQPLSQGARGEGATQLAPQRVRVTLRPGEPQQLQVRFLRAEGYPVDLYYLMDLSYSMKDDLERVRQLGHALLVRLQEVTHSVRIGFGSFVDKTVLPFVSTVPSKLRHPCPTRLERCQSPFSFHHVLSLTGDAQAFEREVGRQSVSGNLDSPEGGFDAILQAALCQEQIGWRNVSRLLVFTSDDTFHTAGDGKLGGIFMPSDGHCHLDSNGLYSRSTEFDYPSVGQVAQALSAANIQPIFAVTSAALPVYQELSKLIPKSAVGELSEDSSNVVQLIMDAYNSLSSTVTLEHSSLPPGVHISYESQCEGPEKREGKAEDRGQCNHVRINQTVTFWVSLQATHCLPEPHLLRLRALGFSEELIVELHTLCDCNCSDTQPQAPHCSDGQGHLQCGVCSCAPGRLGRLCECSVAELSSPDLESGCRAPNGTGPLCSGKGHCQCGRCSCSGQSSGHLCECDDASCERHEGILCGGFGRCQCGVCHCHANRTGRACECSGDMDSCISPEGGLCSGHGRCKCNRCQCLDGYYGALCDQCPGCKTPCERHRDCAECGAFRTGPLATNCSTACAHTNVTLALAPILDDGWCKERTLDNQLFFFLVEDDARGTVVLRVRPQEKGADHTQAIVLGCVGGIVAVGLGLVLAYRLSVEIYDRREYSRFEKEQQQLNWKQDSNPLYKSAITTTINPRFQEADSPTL
Put plainly: α4β7 Integrin Cell Capture Assay. The class given is cell-based. As to conditions: capture of α4β7 integrin expressing RPMI8866 cells on recombinant MadCAM-1 extracellular domain-coated plate; 0.5 mM MnCl2. The protocol: The potency of inhibitors in preventing α4β7 integrin interaction with MadCAM-1 was measured by monitoring the capture of α4β7 integrin expressing cells on a recombinant MadCAM-1 extracellular domain-coated plate. 384-well plates (Corning 3702) were coated with MadCAM-1 extracellular domain by dispensing 20 μL of MAdCAM-1 at 1.0 μg/mL per well and incubating overnight at 4° C. The plates were then washed with PBS and blocked with 3% BSA for 2 hours before being washed again. RPMI8866 cells were spun down and re-suspended in assay medium (DMEM+0.5% FBS+0.5 mM MnCl2) at a density of 0.5×10^6 cells/mL. The cells were then dispensed (60 μL/well) to a 384-well plate (Greiner 781280) that was previously spotted with 60 nL of test compound per well. The plates were incubated at 37° C. for 1 hour. 50 μL of cells were transferred to the blocked, MadCAM-1-coated plates and incubated for 30 minutes at 37° C. 10 μL of 12% glutaraldehyde containing Hoechst 33342 (0.06 mg/mL) was added to the cells (2% glutaraldehyde and 0.01 mg/mL final concentrations). The plates were incubated for 90 minutes at room temperature. The plates were then washed 3 times with 70 μL of PBS per well and imaged on a Cellomics ArrayScan instrument. The cells that were bound to the plate were counted and plotted against the compound concentration to determine the EC50 of the test compounds.
As for `Cn1c(=O)c(-c2ccc(C[C@H](NC(=O)c3c(F)cccc3F)C(=O)O)c3c2OCCO3)cc2ccccc21` [Example 1, (S)-2-(2,6-difluorobenzamido)-3-(8-(1-methyl-2-oxo-1,2-dihydroquinolin-3-yl)-2,3-dihydrobenzo[b][1,4]dioxin-5-yl)propanoic acid], the EC50 stood at 0.011 µM.

As for `Cc1nc(-c2ccc(C[C@H](NC(=O)c3c(F)cccc3F)C(=O)O)c3c2OCCO3)c(C(F)(F)F)c2ccccc12` [Example 2, (S)-2-(2,6-difluorobenzamido)-3-(8-(1-methyl-4-(trifluoromethyl)isoquinolin-3-yl)-2,3-dihydrobenzo[b][1,4]dioxin-5-yl)propanoic acid], the EC50 came to 0.00376 µM.

Turning to `CCc1nc(-c2ccc(C[C@H](NC(=O)c3c(F)cccc3F)C(=O)O)c3c2OCCO3)c(C(F)(F)F)c2ccccc12` [Example 3], the EC50 was determined as 0.00649 µM.

Turning to `O=C(N[C@@H](Cc1ccc(-c2c(Cl)cc(F)cc2Cl)c2c1OCCO2)C(=O)O)c1c(F)cccc1F` [Example 4, (S)-3-(8-(2,6-dichloro-4-fluorophenyl)-2,3-dihydrobenzo[b][1,4]dioxin-5-yl)-2-(2,6-difluorobenzamido)propanoic acid], the EC50 is 0.0263 µM.

For `O=C(N[C@@H](Cc1ccc(-c2c(Cl)cc(F)cc2Cl)c2c1OCCO2)C(=O)O)c1c(Cl)cccc1Cl` [Example 5, (S)-3-(8-(2,6-dichloro-4-fluorophenyl)-2,3-dihydrobenzo[b][1,4]dioxin-5-yl)-2-(2,6-dichlorobenzamido)propanoic acid], the concentration for a half-maximal effect (EC50) was determined as 0.0554 µM.

For the compound `O=C(N[C@@H](Cc1ccc(-c2c(Cl)cc(F)cc2Cl)c2c1OCCO2)C(=O)O)c1c(F)cccc1OC(F)F` [Example 6, (S)-3-(8-(2,6-dichloro-4-fluorophenyl)-2,3-dihydrobenzo[b][1,4]dioxin-5-yl)-2-(2-(difluoromethoxy)-6-fluorobenzamido)propanoic acid], the concentration giving a half-maximal response (EC50) turned out to be 0.444 µM.

Turning to `Cc1cccc(F)c1C(=O)N[C@@H](Cc1ccc(-c2c(Cl)cc(F)cc2Cl)c2c1OCCO2)C(=O)O` [Example 7, (S)-3-(8-(2,6-dichloro-4-fluorophenyl)-2,3-dihydrobenzo[b][1,4]dioxin-5-yl)-2-(2-fluoro-6-methylbenzamido)propanoic acid], the EC50 was found to be 0.0378 µM.

Regarding `CC[C@@H](Nc1cc(F)c(C(=O)N[C@@H](Cc2ccc(-c3c(C)n(C)c(=O)n(C)c3=O)c3c2OCCO3)C(=O)O)c(F)c1)C(F)(F)F` [Example 10, (S)-2-(2,6-difluoro-4-(((R)-1,1,1-trifluorobutan-2-yl)amino)benzamido)-3-(8-(1,3,6-trimethyl-2,4-dioxo-1,2,3,4-tetrahydropyrimidin-5-yl)-2,3-dihydrobenzo[b][1,4]dioxin-5-yl)propanoic acid], the 50% effective concentration (EC50) was 0.000864 µM.

As to `COc1cc2ccccc2cc1-c1ccc(C[C@H](NC(=O)c2c(F)cccc2F)C(=O)O)c2c1OCCO2` [Example 11, (S)-2-(2,6-difluorobenzamido)-3-(8-(3-methoxynaphthalen-2-yl)-2,3-dihydrobenzo[b][1,4]dioxin-5-yl)propanoic acid], the half-maximal effective concentration (EC50) is 0.0293 µM.

As to `O=C(N[C@@H](Cc1ccc(-c2ncc3ccccc3c2C(F)(F)F)c2c1OCCO2)C(=O)O)c1c(F)cccc1F` [Example 12, (S)-2-(2,6-difluorobenzamido)-3-(8-(4-(trifluoromethyl)isoquinolin-3-yl)-2,3-dihydrobenzo[b][1,4]dioxin-5-yl)propanoic acid], the EC50 is 0.0139 µM.

Take `CC[C@@H](Nc1cc(F)c(C(=O)N[C@@H](Cc2ccc(-c3c(C(F)(F)F)cc(C)n(C)c3=O)c3c2COC3)C(=O)O)c(F)c1)C(F)(F)F` [Example 13, (S)-2-(2,6-difluoro-4-(((R)-1,1,1-trifluorobutan-2-yl)amino)benzamido)-3-(7-(1,6-dimethyl-2-oxo-4-(trifluoromethyl)-1,2-dihydropyridin-3-yl)-1,3-dihydroisobenzofuran-4-yl)propanoic acid]: the 50% effective concentration (EC50) is 0.000388 µM.

`Cc1c(-c2ccc(C[C@H](NC(=O)c3c(F)cc(N4CCOC[C@@H]4C(F)(F)F)cc3F)C(=O)O)c3c2COC3)c(=O)n(C)c(=O)n1C` [Example 14, (S)-2-(2,6-difluoro-4-((R)-3-(trifluoromethyl)morpholino)benzamido)-3-(7-(1,3,6-trimethyl-2,4-dioxo-1,2,3,4-tetrahydropyrimidin-5-yl)-1,3-dihydroisobenzofuran-4-yl) propanoic acid]: the 50% effective concentration (EC50) was 0.00038 µM.

For the compound `CC[C@@H](Nc1cc(F)c(C(=O)N[C@@H](Cc2ccc(-c3c(C)n(C)c(=O)n(C)c3=O)c3c2COC3)C(=O)O)c(F)c1)C(F)(F)F` [Example 15, (S)-2-(2,6-difluoro-4-(((R)-1,1,1-trifluorobutan-2-yl)amino)benzamido)-3-(7-(1,3,6-trimethyl-2,4-dioxo-1,2,3,4-tetrahydropyrimidin-5-yl)-1,3-dihydroisobenzofuran-4-yl)propanoic acid], the EC50 was 0.000939 µM.

As for `O=C(N[C@@H](Cc1ccc(-c2c(Cl)cc(F)cc2Cl)c2c1COC2)C(=O)O)c1c(F)cccc1F` [Example 16, (S)-3-(7-(2,6-dichloro-4-fluorophenyl)-1,3-dihydroisobenzofuran-4-yl)-2-(2,6-difluorobenzamido)propanoic acid], the concentration giving a half-maximal response (EC50) is 0.0311 µM.

As for `O=C(N[C@@H](Cc1ccc(-c2c(Cl)cc(F)cc2Cl)c2c1COC2)C(=O)O)c1c(Cl)cccc1Cl` [Example 17, (S)-3-(7-(2,6-dichloro-4-fluorophenyl)-1,3-dihydroisobenzofuran-4-yl)-2-(2,6-dichlorobenzamido)propanoic acid], the EC50 worked out at 0.127 µM.

For the compound `Cc1c(-c2ccc(C[C@H](NC(=O)c3c(F)cccc3F)C(=O)O)c3c2COC3)c(=O)n(C)c(=O)n1C` [Example 18, (S)-2-(2,6-difluorobenzamido)-3-(7-(1,3,6-trimethyl-2,4-dioxo-1,2,3,4-tetrahydropyrimidin-5-yl)-1,3-dihydroisobenzofuran-4-yl)propanoic acid], the EC50 amounted to 0.00522 µM.

In the case of `Cc1cc(C(F)(F)F)c(-c2ccc(C[C@H](NC(=O)c3c(F)cc(N4CCOC[C@@H]4C(F)(F)F)cc3F)C(=O)O)c3c2COC3)c(=O)n1C` [Example 19, (S)-2-(2,6-difluoro-4-((R)-3-(trifluoromethyl)morpholino)benzamido)-3-(7-(1,6-dimethyl-2-oxo-4-(trifluoromethyl)-1,2-dihydropyridin-3-yl)-1,3-dihydroisobenzofuran-4-yl)propanoic acid], the concentration giving a half-maximal response (EC50) came to 0.000193 µM.
